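Five compound concentrations were applied to cells in 96-well plates for 48 hours; endpoints were derived by simple linear interpolation of the resulting dose-response curve. TGI denotes the concentration required for complete inhibition of growth.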
How the values were obtained:
Assay in all cases: NCI anticancer screen, dose series, 48 h
HOP-92 NSCLC = tested on: HOP-92 NSCLC
MCF7 breast = tested on: MCF7 breast
T-47D breast = tested on: T-47D breast
MDA-N = tested on: MDA-N
SNB-75 CNS = tested on: SNB-75 CNS
OVCAR-4 ovarian = tested on: OVCAR-4 ovarian
A498 renal = tested on: A498 renal
DU-145 prostate = tested on: DU-145 prostate
MALME-3M melanoma = tested on: MALME-3M melanoma
OVCAR-3 ovarian = tested on: OVCAR-3 ovarian
RPMI-8226 leukemia = tested on: RPMI-8226 leukemia
IGROV1 ovarian = tested on: IGROV1 ovarian
SF-539 CNS = tested on: SF-539 CNS
SK-MEL-5 melanoma = tested on: SK-MEL-5 melanoma
RXF 393 renal = tested on: RXF 393 renal
ACHN renal = tested on: ACHN renal
U251 CNS = tested on: U251 CNS
COLO 205 colon = tested on: COLO 205 colon
PC-3 prostate = tested on: PC-3 prostate
A549 NSCLC = tested on: A549 NSCLC
UACC-62 melanoma = tested on: UACC-62 melanoma
OVCAR-8 ovarian = tested on: OVCAR-8 ovarian
NCI-H460 lung = tested on: NCI-H460 lung
SNB-19 CNS = tested on: SNB-19 CNS
OVCAR-5 ovarian = tested on: OVCAR-5 ovarian
EKVX NSCLC = tested on: EKVX NSCLC
UO-31 renal = tested on: UO-31 renal
NCI-H23 lung = tested on: NCI-H23 lung
M14 melanoma = tested on: M14 melanoma
HCT-116 colon = tested on: HCT-116 colon
HS 578T breast = tested on: HS 578T breast
SN12C renal = tested on: SN12C renal
BT-549 breast = tested on: BT-549 breast
NCI-H522 lung = tested on: NCI-H522 lung
HCT-15 colon = tested on: HCT-15 colon
SR leukemia = tested on: SR leukemia
SF-268 CNS = tested on: SF-268 CNS
HOP-62 NSCLC = tested on: HOP-62 NSCLC
MOLT-4 leukemia = tested on: MOLT-4 leukemia
NCI/ADR-RES ovarian = tested on: NCI/ADR-RES ovarian
SW-620 colon = tested on: SW-620 colon
KM12 colon = tested on: KM12 colon
SF-295 CNS = tested on: SF-295 CNS
SK-MEL-28 melanoma = tested on: SK-MEL-28 melanoma
K-562 leukemia = tested on: K-562 leukemia
CCRF-CEM leukemia = tested on: CCRF-CEM leukemia
HT29 colon = tested on: HT29 colon
786-0 renal = tested on: 786-0 renal
SK-MEL-2 melanoma = tested on: SK-MEL-2 melanoma
SK-OV-3 ovarian = tested on: SK-OV-3 ovarian
MDA-MB-231 breast = tested on: MDA-MB-231 breast
MDA-MB-435 = tested on: MDA-MB-435
CAKI-1 renal = tested on: CAKI-1 renal
LOX IMVI melanoma = tested on: LOX IMVI melanoma
TK-10 renal = tested on: TK-10 renal
UACC-257 melanoma = tested on: UACC-257 melanoma
HL-60(TB) leukemia = tested on: HL-60(TB) leukemia
HCC-2998 colon = tested on: HCC-2998 colon
NCI-H226 lung = tested on: NCI-H226 lung

With `CC(C)(C)c1ccc(O)c(C[N+](C)(C)C)c1` the TGI (HOP-92 NSCLC) was > 100 µM, the TGI (MCF7 breast) was > 100 µM and the TGI (T-47D breast) was > 100 µM. For the same molecule, the TGI (MDA-N) was > 100 µM, the TGI (SNB-75 CNS) was > 100 µM and the TGI (OVCAR-4 ovarian) was > 100 µM. The TGI (A498 renal) was > 100 µM, the TGI (DU-145 prostate) was > 100 µM and the TGI (MALME-3M melanoma) was > 100 µM. For the same molecule, the TGI (OVCAR-3 ovarian) was > 100 µM, the TGI (RPMI-8226 leukemia) was > 100 µM and the TGI (IGROV1 ovarian) was > 100 µM. For the same molecule, the TGI (SF-539 CNS) was > 100 µM, the TGI (SK-MEL-5 melanoma) was > 100 µM and the TGI (RXF 393 renal) was > 100 µM. For the same molecule, the TGI (ACHN renal) was > 100 µM, the TGI (U251 CNS) was > 100 µM and the TGI (COLO 205 colon) was > 100 µM. The TGI (PC-3 prostate) was > 100 µM, the TGI (A549 NSCLC) was > 100 µM and the TGI (UACC-62 melanoma) was > 100 µM. The TGI (OVCAR-8 ovarian) was > 100 µM, the TGI (NCI-H460 lung) was > 100 µM and the TGI (SNB-19 CNS) was > 100 µM. The TGI (OVCAR-5 ovarian) was > 100 µM, the TGI (EKVX NSCLC) was > 100 µM and the TGI (UO-31 renal) was > 100 µM. For the same molecule, the TGI (NCI-H23 lung) was > 100 µM, the TGI (M14 melanoma) was > 100 µM and the TGI (HCT-116 colon) was > 100 µM. For the same molecule, the TGI (HS 578T breast) was > 100 µM, the TGI (SN12C renal) was > 100 µM and the TGI (BT-549 breast) was > 100 µM. For the same molecule, the TGI (NCI-H522 lung) was > 100 µM, the TGI (HCT-15 colon) was > 100 µM and the TGI (SR leukemia) was > 100 µM. The TGI (SF-268 CNS) was > 100 µM, the TGI (HOP-62 NSCLC) was > 100 µM and the TGI (MOLT-4 leukemia) was > 100 µM. The TGI (NCI/ADR-RES ovarian) was > 100 µM, the TGI (SW-620 colon) was > 100 µM and the TGI (KM12 colon) was > 100 µM. The TGI (SF-295 CNS) was > 100 µM, the TGI (SK-MEL-28 melanoma) was > 100 µM and the TGI (K-562 leukemia) was > 100 µM. The TGI (CCRF-CEM leukemia) was > 100 µM, the TGI (HT29 colon) was > 100 µM and the TGI (786-0 renal) was > 100 µM. For the same molecule, the TGI (SK-MEL-2 melanoma) was > 100 µM, the TGI (SK-OV-3 ovarian) was > 100 µM and the TGI (MDA-MB-231 breast) was > 100 µM. The TGI (MDA-MB-435) was > 100 µM, the TGI (CAKI-1 renal) was > 100 µM and the TGI (LOX IMVI melanoma) was > 100 µM. The TGI (TK-10 renal) was > 100 µM.
`CC(=O)Oc1ccc2c(c1OC(C)=O)CCC1C2=CC[C@]2(C)C(=O)CCC12` (some centres not stated) showed a TGI (HOP-92 NSCLC) of 22.4 µM, a TGI (MCF7 breast) of 31.2 µM and a TGI (T-47D breast) of 37.6 µM. For the same molecule, the TGI (MDA-N) was 33.4 µM, the TGI (OVCAR-4 ovarian) was 15.9 µM and the TGI (DU-145 prostate) was 30.1 µM. For the same molecule, the TGI (MALME-3M melanoma) was 28.6 µM, the TGI (OVCAR-3 ovarian) was 6.2 µM and the TGI (RPMI-8226 leukemia) was 8.41 µM. For the same molecule, the TGI (IGROV1 ovarian) was 18.8 µM, the TGI (SF-539 CNS) was 29.1 µM and the TGI (UACC-257 melanoma) was 68.8 µM. It also gave a TGI (SK-MEL-5 melanoma) of 1.55 µM, a TGI (ACHN renal) of 24.3 µM and a TGI (COLO 205 colon) of 27.7 µM. For the same molecule, the TGI (PC-3 prostate) was 17.3 µM, the TGI (A549 NSCLC) was 33.7 µM and the TGI (UACC-62 melanoma) was 25.5 µM. It also gave a TGI (OVCAR-8 ovarian) of 27.7 µM, a TGI (NCI-H460 lung) of 40.3 µM and a TGI (SNB-19 CNS) of 32.8 µM. For the same molecule, the TGI (OVCAR-5 ovarian) was 30.3 µM, the TGI (EKVX NSCLC) was 30.1 µM and the TGI (UO-31 renal) was 21.7 µM. For the same molecule, the TGI (NCI-H23 lung) was 46.9 µM, the TGI (M14 melanoma) was 26.1 µM and the TGI (HCT-116 colon) was 18.5 µM. For the same molecule, the TGI (HS 578T breast) was 62.5 µM, the TGI (SN12C renal) was 28.1 µM and the TGI (BT-549 breast) was 30.7 µM. It also gave a TGI (NCI-H522 lung) of 5.01 µM, a TGI (HCT-15 colon) of 23.5 µM and a TGI (SR leukemia) of 32.9 µM. It also gave a TGI (SF-268 CNS) of 27.9 µM, a TGI (HOP-62 NSCLC) of 53.7 µM and a TGI (MOLT-4 leukemia) of 19.4 µM. For the same molecule, the TGI (NCI/ADR-RES ovarian) was > 100 µM, the TGI (SW-620 colon) was 14.5 µM and the TGI (KM12 colon) was 33.3 µM. It also gave a TGI (HL-60(TB) leukemia) of 27.5 µM, a TGI (SF-295 CNS) of 29.7 µM and a TGI (SK-MEL-28 melanoma) of 21.3 µM. For the same molecule, the TGI (K-562 leukemia) was 39.5 µM, the TGI (CCRF-CEM leukemia) was 12.9 µM and the TGI (HT29 colon) was 32.9 µM. The TGI (SK-MEL-2 melanoma) was 29.5 µM, the TGI (SK-OV-3 ovarian) was 87.4 µM and the TGI (MDA-MB-231 breast) was 28.3 µM. The TGI (MDA-MB-435) was 18.2 µM, the TGI (CAKI-1 renal) was 19 µM and the TGI (TK-10 renal) was 27.7 µM.
`CN1C(NN)=NS(=O)(=O)c2ccccc21` was tested, and the TGI (HOP-92 NSCLC) was > 100 µM, the TGI (MCF7 breast) was > 100 µM and the TGI (T-47D breast) was > 100 µM. For the same molecule, the TGI (HCC-2998 colon) was > 100 µM, the TGI (MDA-N) was > 100 µM and the TGI (OVCAR-4 ovarian) was > 100 µM. For the same molecule, the TGI (A498 renal) was > 100 µM, the TGI (DU-145 prostate) was > 100 µM and the TGI (OVCAR-3 ovarian) was > 100 µM. For the same molecule, the TGI (IGROV1 ovarian) was > 100 µM, the TGI (SF-539 CNS) was > 100 µM and the TGI (UACC-257 melanoma) was > 100 µM. For the same molecule, the TGI (SK-MEL-5 melanoma) was > 100 µM, the TGI (RXF 393 renal) was > 100 µM and the TGI (ACHN renal) was > 100 µM. For the same molecule, the TGI (U251 CNS) was > 100 µM, the TGI (COLO 205 colon) was > 100 µM and the TGI (PC-3 prostate) was > 100 µM. For the same molecule, the TGI (A549 NSCLC) was > 100 µM, the TGI (UACC-62 melanoma) was > 100 µM and the TGI (OVCAR-8 ovarian) was > 100 µM. For the same molecule, the TGI (NCI-H460 lung) was > 100 µM, the TGI (SNB-19 CNS) was > 100 µM and the TGI (OVCAR-5 ovarian) was > 100 µM. The TGI (EKVX NSCLC) was > 100 µM, the TGI (NCI-H226 lung) was > 100 µM and the TGI (UO-31 renal) was > 100 µM. The TGI (NCI-H23 lung) was > 100 µM, the TGI (M14 melanoma) was > 100 µM and the TGI (HCT-116 colon) was > 100 µM. For the same molecule, the TGI (HS 578T breast) was > 100 µM, the TGI (SN12C renal) was > 100 µM and the TGI (BT-549 breast) was > 100 µM. The TGI (NCI-H522 lung) was > 100 µM, the TGI (HCT-15 colon) was > 100 µM and the TGI (SR leukemia) was > 100 µM. The TGI (SF-268 CNS) was > 100 µM, the TGI (HOP-62 NSCLC) was > 100 µM and the TGI (MOLT-4 leukemia) was > 100 µM. For the same molecule, the TGI (NCI/ADR-RES ovarian) was > 100 µM, the TGI (SW-620 colon) was > 100 µM and the TGI (KM12 colon) was > 100 µM. For the same molecule, the TGI (HL-60(TB) leukemia) was > 100 µM, the TGI (SF-295 CNS) was > 100 µM and the TGI (SK-MEL-28 melanoma) was > 100 µM. The TGI (K-562 leukemia) was > 100 µM, the TGI (CCRF-CEM leukemia) was > 100 µM and the TGI (HT29 colon) was > 100 µM. For the same molecule, the TGI (786-0 renal) was > 100 µM, the TGI (SK-MEL-2 melanoma) was > 100 µM and the TGI (SK-OV-3 ovarian) was > 100 µM. For the same molecule, the TGI (MDA-MB-231 breast) was > 100 µM, the TGI (MDA-MB-435) was > 100 µM and the TGI (CAKI-1 renal) was > 100 µM. For the same molecule, the TGI (LOX IMVI melanoma) was > 100 µM and the TGI (TK-10 renal) was > 100 µM.

Reference: PubChem BioAssay (NCI)
